# Measured values taken from patent US20080039522A1, “Composition Containing a Complex Comprising a Metal Ion and a Carboxylate Ligand Having Anti-Inflammatory Activity” (Medical Therapies Limited, priority 2004, published 2008).
# Assay: EPR spectroscopic determination of Cu(II) monomer / dissociation of the complex in formulations
# Type: physicochemical
# Conditions: percentage of the total amount of Cu in the composition; X-band EPR, 4 K
# Experimental: The synthesis of [Cu2(Indo)4(OH2)2] may result in a product containing a small amount of monomer (typically 5% or less), and this monomer may or may not contain Indo Thus a composition containing [Cu2(Indo)4(OH2)2] may or may not contain a small amount of a Cu(II) monomer containing Indo.
# The relative amounts of the Cu(II) monomer in samples of various compositions containing the complex [Cu2(Indo)4(OH2)2] were determined as described below. […]
# EPR Spectroscopy. Low temperature (4-110 K) X-band EPR spectra of the compositions containing [Cu2(Indo)4(OH2)2] were measured at X-band frequencies (˜9.5 GHz) using a Bruker EMX EPR spectrometer equipped with a standard ER4120 X band cavity, EMX 035M NMR gaussmeter, EMX 032T field controller, EMX 081 magnet power supply, Bruker EMX 048T microwave bridge control and BVT2000 variable temperature unit and Oxford Instruments E900 continuous flow cryostat (for low temperature data collection). Low temperature X-band EPR Cu(II) spectra of samples of [Cu2(Indo)4(OH2)2] containing less than 0.47 mM Cu(II) were measured using a Bruker ESP 300 spectrometer equipped with a Hewlett Packard 5352B microwave frequency counter, Bruker ER 085C magnet power supply, Bruker ER 032 magnet field control, Bruker ER 023M signal channel and Bruker ESP 1600-1048 microwave bridge controller. […]
smiles,measurement,value
COc1ccc2c(c1)c(CC(=O)[O-])c(C)n2C(=O)c1ccc(Cl)cc1.COc1ccc2c(c1)c(CC(=O)[O-])c(C)n2C(=O)c1ccc(Cl)cc1.COc1ccc2c(c1)c(CC(=O)[O-])c(C)n2C(=O)c1ccc(Cl)cc1.COc1ccc2c(c1)c(CC(=O)[O-])c(C)n2C(=O)c1ccc(Cl)cc1.O.O.[Cu+2].[Cu+2] [[Cu2(Indo)4(OH2)2]],Cu(II) monomer (%),"^aThe technique is not applicable to dry powders, however, solid-state [Cu2(Indo)4L2] (L = OH2) contains <1% Cu(II) monomer fraction."
